Experimental findings from patent US11351170B2, “Substituted pyrimidines as CDK4/6 inhibitors” (priority 2017, dated 2022) are described below.

Each structure is given as a SMILES string. Like-named read-outs stand apart in the source and are kept apart here.

One series addresses CDK2 (Homo sapiens (Human), UniProt P24941). Nature of the series: CDK2 Inhibition Assay. It counts as biochemical. How it is done: CDK2 Inhibition Assay. […] The same volume of DMSO was adopted as high control. 20 nL of the test compound solution in DMSO were dispensed into a new 384-well assay plate by Echo 550. […] Kinase assay buffer supplemented with substrate peptides was employed as low control to monitor the background. 400 µM ATP was prepared in kinase assay buffer containing and 5 μL of ATP solution was added to each well to start the reaction. The assay plate was incubated at 25° C. for 90 minutes and the reaction was stopped by adding 40 μL of 0.5 M EDTA.
Phosphorylated fluorescent-tagged peptides were differentiated from non-phosphorylated peptides by separating using Caliper EZ Reader II and the detection was directly converted to conversion ratio.

A short description of series [1]: Metabolic stability in human liver microsomes. It counts as in vitro ADME. The following applies: human liver microsomes 0.5 mg/mL. As to the method:
(§1) Metabolic stability of compounds is assessed at […] with human, rat, mouse, dog, and monkey liver microsomes (0.5 mg/mL). Compound and protein are equilibrated at 37° C. for 5 min prior to reaction initiation with co-factor NADPH. […] After quenching and centrifugation, supernatants were analyzed by LC-MS with methods specific to compounds tested.

Series [2] in a line: Mouse pharmacokinetics (p.o. and i.v.).
Procedure: Blood samples were taken at 0.083, 0.25, 0.5, 1.0, 3.0, 6.0 and 24 hours post i.v. dosing and at 0.25, 0.5, 1.0, 3.0, 6.0 and 24 hours post p.o. dosing. The plasma concentration of compounds were determined by HPLC.
Series [3] is described as follows: Metabolic stability in mouse liver microsomes. It counts as in vitro ADME. Particulars: mouse liver microsomes 0.5 mg/mL. As to the method:
as §1

A further series addresses CDK5 (Homo sapiens (Human), UniProt Q00535). The experiment in a line: CDK5 Inhibition Assay. It counts as biochemical. How it is done:
CDK5 Inhibition Assay. […] The same volume of DMSO was adopted as high control. 20 nL of the test compound solution in DMSO were dispensed into a new 384-well assay plate by Echo 550. […] Kinase assay buffer supplemented with substrate peptides was employed as low control to monitor the background. 40 µM ATP was prepared in kinase assay buffer containing and 5 μL of ATP solution was added to each well to start the reaction. The assay plate was incubated at 25° C. for 90 minutes and the reaction was stopped by adding 40 μL of 0.5 M EDTA.

The nature of series [4]: Metabolic stability in dog liver microsomes. It counts as in vitro ADME. Particulars: dog liver microsomes 0.5 mg/mL. As to the method:
as §1

The next series relates to HS68 cells. Particulars: HS68 cells treated for 24 hours.
The nature of series [5]: Metabolic stability in monkey liver microsomes. The format is in vitro ADME. Particulars: monkey liver microsomes 0.5 mg/mL. How it is done: as §1
Series [6] can be described thus: Metabolic stability in rat liver microsomes. It counts as in vitro ADME. The following applies: rat liver microsomes 0.5 mg/mL. As to the method: as §1

CDK5, sequence (Q00535 whole entry): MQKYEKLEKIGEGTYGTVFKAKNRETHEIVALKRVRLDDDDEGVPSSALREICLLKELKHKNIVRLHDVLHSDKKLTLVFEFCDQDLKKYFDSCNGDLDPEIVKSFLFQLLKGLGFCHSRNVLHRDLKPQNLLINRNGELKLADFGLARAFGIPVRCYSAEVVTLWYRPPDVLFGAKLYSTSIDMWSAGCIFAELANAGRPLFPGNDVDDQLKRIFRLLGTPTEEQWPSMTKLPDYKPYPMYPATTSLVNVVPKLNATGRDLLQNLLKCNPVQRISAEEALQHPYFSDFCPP
CDK5, sequence (Q15078 99-307 partner): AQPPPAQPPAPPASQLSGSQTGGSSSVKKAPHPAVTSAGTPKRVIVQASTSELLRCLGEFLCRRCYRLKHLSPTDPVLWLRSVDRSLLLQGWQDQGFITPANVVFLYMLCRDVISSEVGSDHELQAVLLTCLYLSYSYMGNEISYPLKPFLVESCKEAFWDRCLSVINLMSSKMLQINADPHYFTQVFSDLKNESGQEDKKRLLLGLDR
Procedure for HS68 cells: HS68 cells (human skin fibroblast cell line, ATCC) were treated for 24 hours with compounds of the present invention at 0, 1, 3, 10, 30, 100, 300, or 1,000 nmol/L final concentration. Cells were harvested and fixed in ice-cold 70% ethanol (Sigma-Aldrich). Fixed cells were washed with PBS, stained with 40 μg/mL propidium iodide (Thermofisher Scientific), 10 g RNAseA (Sigma-Aldrich) in PBS-CMF (calcium magnesium free). Samples were processed using flow cytometer (Fisher), and cell-cycle analysis was completed using FlowJo software (Tree Star).

On to `CCN1CCC(COc2ccc(Nc3ncc(F)c(-c4cc(F)c5nc6n(c5c4)C(C)(C)CC6)n3)nc2)CC1` [Example 8, N-(5-((1-ethylpiperidin-4-yl)methoxy)pyridin-2-yl)-5-fluoro-4-(5-fluoro-1,1-dimethyl-2,3-dihydro-1H-benzo[d]pyrrolo[1,2-a]imidazol-7-yl)pyrimidin-2-amine], for which the figures for the IC50 at CDK2, on CDK2 (read-out: CDK2 IC50) and at CDK5 were 285 nM, 368 nM and 705 nM, respectively. In addition, the half-life in series [1] (NADPH, 37° C.) is 1.34 h; in series [2] (plasma, iv, 2 mg/kg), 3.36 h; in [3] (NADPH, 37° C.), 0.45 h; in series [4] (NADPH, 37° C.), 0.402 h; in [5] (NADPH, 37° C.), 0.223 h; in [6] (NADPH, 37° C.), 1.29 h. The CLint scaled turned out to be 21.7 mL/min/kg in series [1] (scaled); 202 mL/min/kg in series [3] (scaled); 143 mL/min/kg in series [4] (scaled); 151 mL/min/kg in [5] (scaled); 32.2 mL/min/kg in series [6] (scaled). This compound displayed a F in series [2] (10 mg/kg p.o. vs 2 mg/kg i.v.) of 45.6%. Moreover, the AUC(0-t) is 2110 ng·h/mL in [2] (plasma, iv, 2 mg/kg) and 4820 ng·h/mL in series [2] (plasma, po, 10 mg/kg). The Vd in [2] (plasma, iv, 2 mg/kg) was 3.71 L/kg. This compound also had a clearance in series [2] (plasma, iv, 2 mg/kg) of 15.7 mL/min/kg. The Cmax in series [2] (plasma, po, 10 mg/kg) was 340 ng/mL. In addition, the Tmax in [2] (plasma, po, 10 mg/kg) came out at 6 h. Besides, the “G1 % (max)” value in the series on HS68 cells stood at 79.35%.
